Source: US9340548B2, “Substituted pyrazolo[3,4-a]carbazoles as hepatitis C inhibitors” (priority 2011, dated 2016)

Tested on: HCVpp (HCV E1/E2, isolate Con1) entry into Hep3B2.1-7 cells
Test: microbe, parasite or virus in culture
Type: cell-based
Settings: Hepatitis C virus, 72 h, read-out: EC50 (nM) Example 46

SMILES	EC50
CC1(C)Cc2c[nH]nc2-c2[nH]c3ccc(C(=O)N[C@H]4CCOC4)cc3c21 [Compound 1006]	112 nM
CC1(C)Cc2c[nH]nc2-c2[nH]c3ccc(C(N)=O)cc3c21 [Compound 1011]	72 nM
CC1(C)Cc2c[nH]nc2-c2[nH]c3ccc(C(=O)NC4CCN(C(=O)c5ccccn5)C4)cc3c21 (centres unmarked) [Compound 1015]	12 nM
CC(C)NC(=O)N1CCC(NC(=O)c2ccc3[nH]c4c(c3c2)C(C)(C)Cc2c[nH]nc2-4)C1 (centres unmarked) [Compound 1118]	19 nM
CC1(C)Cc2c[nH]nc2-c2[nH]c3ccc(C(=O)Nc4cccnc4)cc3c21 [Compound 1126]	65 nM
CC1(C)Cn2cnnc2-c2[nH]c3ccc(C(=O)NCc4ccccn4)cc3c21 [Compound 2001]	1400 nM
Cn1cc2c(n1)-c1[nH]c3ccc(C(=O)NCc4ccccn4)cc3c1C(C)(C)C2 [Compound 2004]	109 nM
CC1(C)Cn2ccnc2-c2[nH]c3ccc(C(=O)NC4CCOCC4)cc3c21 [Compound 2012]	230 nM
CC1(C)Cc2sc(N)nc2-c2[nH]c3ccc(C(=O)NC4CCS(=O)(=O)C4)cc3c21 (centres unmarked) [Compound 2014]	280 nM
Cc1nc2c(s1)CC(C)(C)c1c-2[nH]c2ccc(C(=O)NC3CCS(=O)(=O)C3)cc12 (centres unmarked) [Compound 2018]	320 nM
COC(=O)c1ccc2[nH]c3c(c2c1)C(C)(C)Cc1c[nH]nc1-3 [Compound 2020]	97 nM
CC1(C)Cc2cnc(N)nc2-c2[nH]c3ccc(C(=O)NCc4ccccn4)cc3c21 [Compound 2022]	1350 nM
Cc1ncc2c(n1)-c1[nH]c3ccc(C(=O)NC4CCS(=O)(=O)C4)cc3c1C(C)(C)C2 (centres unmarked) [Compound 2028]	885 nM
CC(C)S(=O)(=O)CCNC(=O)c1ccc2[nH]c3c(c2c1)C1(CCC1)Cc1c[nH]nc1-3 [Compound 3011]	2.8 nM
O=C(NC1CCN(C(=O)c2ccccn2)C1)c1ccc2[nH]c3c(c2c1)C1(CCC1)Cc1c[nH]nc1-3 (centres unmarked) [Compound 3018]	6.7 nM
CC1CC2(Cc3c[nH]nc3-c3[nH]c4ccc(C(=O)NCc5ccccn5)cc4c32)C1 (centres unmarked) [Compound 4004]	54 nM
CC1(C)c2c[nH]nc2-c2[nH]c3ccc(C(=O)NC4CCN(C(=O)c5ncn[nH]5)C4)cc3c21 (centres unmarked) [Compound 5002]	59 nM
